# “Also recorded” adds a separate entry of the source.
# Columns and labels:
# [1] = test system: cancer cell lines (HepG2, A549, Panc1, HCT-116); test: Chemotherapy and DNAzyme combination, several cancer cell lines; type: cell-based; details: therapy induced senescence, viability 72 hours following treatment (FIG. 12F)
# Excerpt: PANC-1 cells were maintained in DMEM medium supplemented with 10% fetal bovine serum, 1% penicillin-streptomycin and 1% sodium pyruvate. HCT116 cells were maintained in McCoy's 5A medium supplemented with 10% fetal bovine serum and 1% penicillin-streptomycin. A549 cells were maintained in F-12K Medium supplemented with 10% fetal bovine serum and 1% penicillin-streptomycin. HepG2 cell were maintained Eagle's Minimum Essential Medium, supplemented in 10% fetal bovine serum, 1% penicillin-streptomycin and 1% sodium pyruvate. All cancer cell lines were incubated in 5% C02 at 37° C.
# Cancer cell lines were seeded in 96 well plates 24 hours before treatment. Chemotherapies were applied at indicated concentrations either alone or as combination with DNAzyme-lipofectamine complex. 72 hours following treatment, cell viability was measured using Prestoblue® reagent. Chemotherapies were diluted in cell medium to the indicated concentrations. 24 hours following seeding, culture medium was replaced with chemotherapy containing medium, immediately followed by transfection of DNAzyme as described above. 72 hours following treatment, cell viability was measured using Prestoblue® reagent.
# The following chemotherapies were used: Etoposide (Sigma), Palbociclib (Sigma), Doxorubicin (Sigma), Cisplatin (Sigma), ABT-263 (Selleckchem). All compounds were dissolved and stored according to manufacturer instructions.
# p21 protein = p21 protein staining in HepG2 cells; type: cell-based, human; details: Etoposide alone or together with DNAzyme (FIGS. 15A-B)
# Experimental: Alternatively, cells were fixed with 4% Formaldehyde for 15 minutes, permeabilized in 0.2% […] for 5 minutes and blocked with 2% bovine serum albumin (BSA) for 30 min in room temperature. Cells were then incubated with a primary or with a conjugated antibody over-night or for 3 hours respectively. For unconjugated antibodies, a corresponding fluorescently-labelled secondary antibody was added for 1 hour, followed by Hoechst counterstaining. Cells were washed with PBS three times following each step. Images were acquired using Nikon Eclipse Ti2 microscope at ×10 magnification.
# Antibodies were diluted in blocking solution as indicated below: 53BP1 antibody (Novus biologicals NB100-304, 1:800), Phospho-histone H2AX antibody (Cell signaling #2577, 1:800), p21 Waf1/Cip1 antibody (Cell signaling #8865, 1:500), p16 antibody (Santa Cruz sc-56330, 1:200), Alexa Fluor-488 goat anti mouse (Thermo Fisher A11029, 1:1000).
# human p21 mRNA = test: In vitro cleavage assay of human p21 mRNA; type: biochemical; details: in vitro cleavage of p21 mRNA (SEQ ID NO: 1); RNA substrate 500 nM, 37° C. 60 min, agarose gel
# Procedure, shortened: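 RNA substrates were T7 in vitro transcripts from PCR-amplified cDNA (source RNA: senescent IMR-90 cells), gel-purified. Substrate at 500 nM final was incubated with DNAzyme (10 μM stock) in reaction buffer (10× stock: 50 mM Tris-HCl pH 7.4, 100 mM NaCl, 10 mM MgCl2) for 60 min at 37 °C. Cleavage products were resolved on 1.5% agarose TBE gels and quantified by densitometry.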
# [2] = test system: senescent human IMR-90 fibroblast cells; type: cell-based; details: increasing concentrations (FIGS. 6A-C, 12A-C)
# Procedure, shortened: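 Senescence was induced by etoposide at […] for 48 h, with the phenotype present 7 days later, or by H-RasG12 or long-term passaging. Cells grown at 5% oxygen were transfected with DNAzymes by Lipofectamine 2000, and survival was scored 3-6 days later by PrestoBlue relative to Lipofectamine-only control.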
# [3] = DNAzyme stability analysis in BALF; type: in vitro ADME, mice
# Experimental: DNAzyme stability was assessed by incubation with PBS, plasma and BALF (Bronchoalveolar Lavage Fluid). A comparison between unmodified and 3′Inverted dT modification was made. Following incubation for the indicated time points, samples were analyzed using gel electrophoresis. Quantification compared to time 0 was performed using Image Lab software (Bio Rad).
substance,measurement,setting,value
"DNAzyme 1670: SEQ ID NO: 54: GGGAAAGGAggctagctacaacgaAAGGGGGAG (DNA GGGAAAGGAGGCTAGCTACAACGAAAGGGGGAG; DNA, backbone and methylation of C not given here)",efficacy of sub-clinical Etoposide in combination with DNAzyme,[1],comparable to that of clinical Etoposide dose
same,p21 protein immunofluorescent staining in HepG2 cells,p21 protein,significant decrease in staining; also recorded: p21 upregulation is blocked
same,Validated cleavage,human p21 mRNA,time and concentration dependent; also recorded: validated for mediating cleavage of p21 mRNA
same,"selectivity of killing, senescent versus growing IMR-90 cells",[2],wide range of selective doses
same,stability in BALF of diseased (bleomycin) mice compared to naive BALF,[3]; FIG. 13C,lower
same,start of reduction in size (below full length) in BALF,"[3]; unmodified DNAzyme, from the start of incubation (FIG. 13A)",24 h
same,time to degradation / stability in BALF,"[3]; with 3′ inverted dT modification versus unmodified (FIGS. 7B, 13C)",significantly increased

# From US11879140B2, “P21 mRNA targeting DNAzymes” (1E Therapeutics Ltd., priority 2020, dated 2024)
